The values that follow come from ChEMBL document CHEMBL1144543, “QSAR study of anticoccidial activity for diverse chemical compounds: prediction and experimental assay of trans-2-(2-nitrovinyl)furan” (2007).

What all share (type): functional
Assay [1] is filed under the species Gallus gallus. Put plainly: Increase in weight of Eimeria tenella infected Chick at 8 ug/ml relative to control.
Assay [2] is filed under the species Gallus gallus. The experiment in a line: Increase in weight of Eimeria tenella infected Chick at 2 ug/ml relative to control.
Assay [3] is filed under the species Gallus gallus. Put plainly: Increase in weight of Eimeria tenella infected Chick at 4 ug/ml relative to control.
The subject of assay [4] is Eimeria tenella. The experiment in a line: Anticococcidal activity against Eimeria tenella in Chick assessed as reduction in lesion at 4 ug/ml relative to control. Further details: scale not given: the % may be the effect or the level left.
For assay [5], the system named is Eimeria tenella. Put plainly: Anticococcidal activity against Eimeria tenella in Chick assessed as reduction in lesion at 8 ug/ml relative to control. More on the design: scale not given: the % may be the effect or the level left.
Assay [6] has as its system Eimeria tenella. Put plainly: Anticococcidal activity against Eimeria tenella in Chick assessed as reduction in lesion at 2 ug/ml relative to control. Further details: scale not given: the % may be the effect or the level left.
The species entered for assay [7] is Gallus gallus. Put plainly: Increase in weight of Eimeria tenella infected Chick at 125 ug/ml relative to control.
Assay [8] deals with Eimeria tenella. The experiment in a line: Anticococcidal activity against Eimeria tenella in Chick assessed as reduction in lesion at 125 ug/ml relative to control. Further details: scale not given: the % may be the effect or the level left.

For the compound `O=[N+]([O-])/C=C/c1ccco1`, the Activity in the assay listed under Gallus gallus [1] came to 83.86%; in the assay listed under Gallus gallus [2], 80.08%; in the assay filed under Gallus gallus [3], 86.78%; in the assay on Eimeria tenella [4], 67.14%; in the assay with Eimeria tenella [5], 72.86%; in the assay with Eimeria tenella [6], 58.57%.

As for `CCCc1ncc(C[n+]2ccccc2C)c(N)n1.Cl.[Cl-]` [AMPROLIUM], the Activity in the assay listed under Gallus gallus [7] was found to be 75.19%; in the assay on Eimeria tenella [8], 60%.
